Our source for the Activity values is ChEMBL document CHEMBL1151187, “Antioxidant xanthones from Garcinia vieillardii” (J Nat Prod, 2004).

Active and inactive are the calls of the source. No cut-off for these calls is given here.

In the test the test system is Radical scavenging activity. Kind of test: Antioxidant activity assessed as DPPH radical scavenging activity. The test is classed as functional. (Loss of DPPH colour is used to gauge radical scavenging.)

Turning to `C=C(c1c(OC)cc(O)c2c(=O)c3ccc(O)c(O)c3oc12)C(C)C`, the outcome was Active.

For `C=CC(C)(C)c1c(O)cc(O)c2c(=O)c3ccc(O)c(O)c3oc12`, the result was Active.

Turning to `COc1ccc(O)c(C(C)(C)C)c1.COc1ccc(O)cc1C(C)(C)C`, the outcome was Active.
